In ChEMBL document CHEMBL1143107 (Bioorg Med Chem, 2008):

Assays:
Homo sapiens [1] = organism: Homo sapiens; test: Ratio of IC50 for human COX1 to IC50 for human COX2 in human whole blood; assay type: tissue-based
[2] = target: T1, Prostaglandin G/H synthase 2 (Homo sapiens, UniProt P35354)
T1 sequence (P35354 whole entry): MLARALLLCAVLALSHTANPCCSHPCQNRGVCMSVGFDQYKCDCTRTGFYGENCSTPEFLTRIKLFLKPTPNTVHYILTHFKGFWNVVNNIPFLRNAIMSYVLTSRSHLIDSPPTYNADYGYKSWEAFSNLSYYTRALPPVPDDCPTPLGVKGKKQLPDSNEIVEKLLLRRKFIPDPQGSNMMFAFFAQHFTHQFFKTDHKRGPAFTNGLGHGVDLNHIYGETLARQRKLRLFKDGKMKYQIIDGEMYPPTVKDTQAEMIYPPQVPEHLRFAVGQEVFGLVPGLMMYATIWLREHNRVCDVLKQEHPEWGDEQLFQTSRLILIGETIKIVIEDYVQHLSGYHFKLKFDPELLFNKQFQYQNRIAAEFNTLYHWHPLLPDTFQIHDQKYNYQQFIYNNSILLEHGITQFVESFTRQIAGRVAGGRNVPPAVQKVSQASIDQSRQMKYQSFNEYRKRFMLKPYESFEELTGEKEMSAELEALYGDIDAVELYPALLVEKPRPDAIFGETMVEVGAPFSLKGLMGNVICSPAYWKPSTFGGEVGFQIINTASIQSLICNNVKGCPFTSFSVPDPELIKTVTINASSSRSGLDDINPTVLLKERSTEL
Description: Inhibition of human COX2 in human whole blood

[3] = target: T1, Prostaglandin G/H synthase 2; remark: listed apart in the source
Homo sapiens [4] = organism: Homo sapiens; test: Ratio of IC50 for human COX1 to IC50 for human COX2

SMILES	Ratio IC50 (Homo sapiens [1])	IC50 [2] [µM]	IC50 [3] [µM]	Ratio IC50 (Homo sapiens [4])
CS(=O)(=O)c1ccc(-c2nc(NCCc3cccs3)cc(C(F)(F)F)n2)cc1	> 83	–	–	–
NS(=O)(=O)c1ccc(-c2nc(NCc3ccsc3)cc(C(F)(F)F)n2)cc1	> 193	0.0519	0.072	1390
Cc1ccccc1CNc1cc(C(F)(F)F)nc(-c2ccc(S(C)(=O)=O)cc2)n1	> 17	–	–	–
CS(=O)(=O)c1ccc(-c2nc(NCc3ccccn3)cc(C(F)(F)F)n2)cc1	> 1	> 10	> 10	> 1
COc1cc(NCc2ccccc2)nc(-c2ccc(S(C)(=O)=O)cc2)n1	> 19600	0.0051	–	–
Cc1c(NCc2ccccc2)nc(-c2ccc(S(C)(=O)=O)cc2)nc1C(F)(F)F	> 556	0.018	–	–
CS(=O)(=O)c1ccc(-c2nc(NCc3ccc(N)cc3)cc(C(F)(F)F)n2)cc1	473	–	–	–
CC(C)Nc1cc(NCc2cccs2)nc(-c2ccc(S(C)(=O)=O)cc2)n1	> 9720	0.0103	–	–
CS(=O)(=O)c1ccc(-c2nc(Nc3ccccc3)cc(C(F)(F)F)n2)cc1	> 1	> 10	–	–
CS(=O)(=O)c1ccc(-c2nc([S+]([O-])Cc3ccccc3)cc(C(F)(F)F)n2)cc1 (configuration not stated)	> 1	> 10	–	–
COc1ccc(CNc2cc(C(F)(F)F)nc(-c3ccc(S(C)(=O)=O)cc3)n2)cc1	> 367	0.272	–	–
Cc1cccc(CNc2cc(C(F)(F)F)nc(-c3ccc(S(C)(=O)=O)cc3)n2)c1	> 52	–	–	–
CS(=O)(=O)c1ccc(-c2nc(C(F)(F)F)cc(S(=O)(=O)Cc3ccccc3)n2)cc1	> 1	> 10	–	–
CS(=O)(=O)c1ccc(-c2nc(NCc3csc4ccccc34)cc(C(F)(F)F)n2)cc1	> 1	> 10	10	> 1
NS(=O)(=O)c1ccc(-c2nc(NCc3cccnc3)cc(C(F)(F)F)n2)cc1	> 1	> 10	> 10	> 1
CS(=O)(=O)c1ccc(-c2nc(NCC3CCCCC3)cc(C(F)(F)F)n2)cc1	> 68	–	–	> 3610
CS(=O)(=O)c1ccc(-c2nc(NCc3cc4ccccc4s3)cc(C(F)(F)F)n2)cc1	–	0.293	0.00592	–
NS(=O)(=O)c1ccc(-c2nc(NCc3ccncc3)cc(C(F)(F)F)n2)cc1	> 3	3.33	1.89	> 52
CCSc1cc(NCc2ccccc2)nc(-c2ccc(S(C)(=O)=O)cc2)n1	414	0.0241	–	–
CCN(Cc1ccccc1)c1cc(C(F)(F)F)nc(-c2ccc(S(C)(=O)=O)cc2)n1	> 1	> 10	–	–

SMILES	Ratio IC50 (Homo sapiens [1])	IC50 [2] [µM]	IC50 [3] [µM]	Ratio IC50 (Homo sapiens [4])
CC(Nc1cc(C(F)(F)F)nc(-c2ccc(S(C)(=O)=O)cc2)n1)c1ccccc1 (configuration not stated)	74	0.522	–	–
Cc1c(NCc2ccc(F)cc2)nc(-c2ccc(S(C)(=O)=O)cc2)nc1C(F)(F)F	> 447	0.0224	–	–
CC[S+]([O-])c1cc(NCc2cccs2)nc(-c2ccc(S(C)(=O)=O)cc2)n1 (configuration not stated)	> 266	–	–	–
CC(C)c1cc(NCc2ccccc2)nc(-c2ccc(S(C)(=O)=O)cc2)n1	> 396	–	–	–
CS(=O)(=O)c1ccc(-c2nc(NCc3cc(F)cc(F)c3)cc(C(F)(F)F)n2)cc1	> 333	0.3	–	–
CS(=O)(=O)c1ccc(-c2nc(Cl)cc(NCc3ccc(F)cc3)n2)cc1	2970	–	–	–
Cc1ccc(CNc2cc(C(F)(F)F)nc(-c3ccc(S(C)(=O)=O)cc3)n2)s1	> 852	0.0117	–	–
CS(=O)(=O)c1ccc(-c2nc(NCc3ccc(OC(F)(F)F)cc3)cc(C(F)(F)F)n2)cc1	> 1	> 10	–	–
CC(C)c1ccc(Nc2cc(C(F)(F)F)nc(-c3ccc(S(C)(=O)=O)cc3)n2)cc1	> 1	> 10	–	–
Cn1cccc1CCNc1cc(C(F)(F)F)nc(-c2ccc(S(C)(=O)=O)cc2)n1	> 25	3.98	–	–
CN(Cc1ccccc1)c1cc(C(F)(F)F)nc(-c2ccc(S(C)(=O)=O)cc2)n1	22	–	–	–
CS(=O)(=O)c1ccc(-c2nccc(NCc3ccccc3)n2)cc1	> 1	> 10	–	–
COCOc1ccc(CNc2cc(C(F)(F)F)nc(-c3ccc(S(C)(=O)=O)cc3)n2)cc1	> 1	> 10	–	–
CCc1c(NCc2ccc(F)cc2)nc(-c2ccc(S(C)(=O)=O)cc2)nc1C(F)(F)F	> 972	–	–	–
CS(=O)(=O)c1ccc(-c2nc(Cl)cc(NCc3cccs3)n2)cc1	> 81300	–	–	–
CS(=O)(=O)c1ccc(-c2nc(SCc3ccccc3)cc(C(F)(F)F)n2)cc1	> 189	0.528	–	–
CS(=O)(=O)c1ccc(-c2nc(NCc3ccc(C(F)(F)F)cc3)cc(C(F)(F)F)n2)cc1	> 52	–	–	–
CC(C)(C)c1cc(NCc2ccccc2)nc(-c2ccc(S(C)(=O)=O)cc2)n1	1060	–	–	–
CCSc1cc(NCc2cccs2)nc(-c2ccc(S(C)(=O)=O)cc2)n1	> 8400	0.0012	–	–
CS(=O)(=O)c1ccc(-c2nc(NC3CCCCC3)cc(C(F)(F)F)n2)cc1	–	0.238	0.253	–

SMILES	Ratio IC50 (Homo sapiens [1])	IC50 [2] [µM]	IC50 [3] [µM]	Ratio IC50 (Homo sapiens [4])
CS(=O)(=O)c1ccc(-c2nc(Cl)cc(NCc3ccccc3)n2)cc1	> 9120	–	–	–
CS(=O)(=O)c1ccc(-c2nc(NCc3ccc(O)cc3)cc(C(F)(F)F)n2)cc1	> 158	–	–	–
CCc1c(NCc2cccs2)nc(-c2ccc(S(C)(=O)=O)cc2)nc1C(F)(F)F	> 83	0.121	–	–
CS(=O)(=O)c1ccc(-c2nc(O)cc(NCc3cccs3)n2)cc1	> 1260	–	–	–
CS(=O)(=O)c1ccc(-c2nccc(NCc3cccs3)n2)cc1	> 10900	0.0092	–	–
CC(C)Nc1cc(NCc2ccccc2)nc(-c2ccc(S(C)(=O)=O)cc2)n1	> 365	0.274	–	–
Cc1ccc(CNc2cc(Cl)nc(-c3ccc(S(C)(=O)=O)cc3)n2)cc1	> 2250	0.0444	–	–
Cc1ccc(CNc2cc(C(F)(F)F)nc(-c3ccc(S(C)(=O)=O)cc3)n2)cc1	> 2060	0.0484	–	–
Cc1ccsc1CNc1cc(C(F)(F)F)nc(-c2ccc(S(C)(=O)=O)cc2)n1	189	0.528	–	–
CS(=O)(=O)c1ccc(-c2nc(O)cc(NCc3ccccc3)n2)cc1	> 2030	–	–	–
CC(C)c1ccc(CNc2cc(C(F)(F)F)nc(-c3ccc(S(C)(=O)=O)cc3)n2)cc1	> 1	> 10	–	–
CS(=O)(=O)c1ccc(-c2nc(SCc3cccs3)cc(C(F)(F)F)n2)cc1	> 24400	0.0041	–	–
CS(=O)(=O)Oc1ccc(CNc2cc(C(F)(F)F)nc(-c3ccc(S(C)(=O)=O)cc3)n2)cc1	> 1	> 10	–	–
CCS(=O)(=O)c1cc(NCc2cccs2)nc(-c2ccc(S(C)(=O)=O)cc2)n1	15	0.144	–	–
CS(=O)(=O)c1ccc(-c2nc(NCc3ccc(F)cc3)cc(C(F)(F)F)n2)cc1	1300	0.0772	–	–
COc1cc(NCc2cccs2)nc(-c2ccc(S(C)(=O)=O)cc2)n1	> 22000	–	–	–
CCS(=O)(=O)c1cc(NCc2ccccc2)nc(-c2ccc(S(C)(=O)=O)cc2)n1	> 110	0.0907	–	–
Cc1ccc(CNc2nc(-c3ccc(S(C)(=O)=O)cc3)nc(Cl)c2C)cc1	> 2730	0.0367	–	–
Cc1c(NCc2cccs2)nc(-c2ccc(S(C)(=O)=O)cc2)nc1C(F)(F)F	> 78	0.0382	–	–
Cc1c(Cl)nc(-c2ccc(S(C)(=O)=O)cc2)nc1NCc1ccc(F)cc1	> 145	–	–	–
